Measured values taken from PubChem BioAssay AID248 (DTP/NCI, 2004).
Toxic doses and inconclusive results are not listed. Cut-off read from the data, not from the text of the source: active = T/C of 150% or more; inactive = T/C below 125%.

Tested on: L1210 leukemia ip in BDF1 mice, survival T/C
Experiment: NCI In Vivo Anticancer Drug Screen. Data for tumor model L1210 Leukemia (intraperitoneal) in B6D2F1 (BDF1) mice
Settings: endpoint: mean survival time, higher = longer survival
Outline: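 Ratio derived from survival: compound-dosed mice over vehicle-dosed mice, all bearing a transplantable tumor.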

[1] = dose: 100.0 mg/kg/injection, schedule: Q04DX003 (ip), vehicle: Klucel (hydroxypropylcellulose) (HPC)
[2] = dose: 200.0 mg/kg/injection, schedule: Q04DX003 (ip), vehicle: Klucel (hydroxypropylcellulose) (HPC)
[3] = dose: 400.0 mg/kg/injection, schedule: Q04DX003 (ip), vehicle: Klucel (hydroxypropylcellulose) (HPC)
[4] = dose: 100.0 mg/kg/injection, schedule: Q01DX001 (ip), vehicle: saline
[5] = dose: 200.0 mg/kg/injection, schedule: Q01DX001 (ip), vehicle: saline
[6] = dose: 400.0 mg/kg/injection, schedule: Q01DX001 (ip), vehicle: saline
[7] = dose: 100.0 mg/kg/injection, schedule: Q04DX003 (ip), vehicle: saline with Tween-80
[8] = dose: 200.0 mg/kg/injection, schedule: Q04DX003 (ip), vehicle: saline with Tween-80
[9] = dose: 400.0 mg/kg/injection, schedule: Q04DX003 (ip), vehicle: saline with Tween-80
[10] = dose: 100.0 mg/kg/injection, schedule: Q04DX002 (ip), vehicle: saline with Tween-80
[11] = dose: 200.0 mg/kg/injection, schedule: Q04DX002 (ip), vehicle: saline with Tween-80
[12] = dose: 400.0 mg/kg/injection, schedule: Q04DX002 (ip), vehicle: saline with Tween-80
[13] = dose: 100.0 mg/kg/injection, schedule: Q04DX002 (ip), vehicle: Klucel (hydroxypropylcellulose) (HPC)
[14] = dose: 200.0 mg/kg/injection, schedule: Q04DX002 (ip), vehicle: Klucel (hydroxypropylcellulose) (HPC)

Measured: T/C

CCOC(=O)C(CC(C)C)NC(=O)C(Cc1ccc(N(CCCl)CCCl)cc1)NC(C)=O (centres undefined)
inactive: dose: 1.0 mg/kg/injection, schedule: Q01DX009 (ip), vehicle: other 108 % of control | dose: 2.0 mg/kg/injection, schedule: Q01DX009 (ip), vehicle: other 108 % of control | dose: 4.0 mg/kg/injection, schedule: Q01DX009 (ip), vehicle: other 120 % of control | dose: 8.0 mg/kg/injection, schedule: Q01DX009 (ip), vehicle: other 119 % of control | dose: 16.0 mg/kg/injection, schedule: Q01DX009 (ip), vehicle: other 109 % of control | dose: 32.0 mg/kg/injection, schedule: Q01DX009 (ip), vehicle: other 116 % of control | dose: 62.5 mg/kg/injection, schedule: Q01DX001 (oral), vehicle: alcohol 102 % of control | dose: 66.0 mg/kg/injection, schedule: Q01DX001 (ip), vehicle: olive oil, sesame oil, peanut oil 108 % of control | dose: 100.0 mg/kg/injection, schedule: Q01DX001 (ip), vehicle: olive oil, sesame oil, peanut oil 110 % of control | dose: 125.0 mg/kg/injection, schedule: Q01DX001 (oral), vehicle: alcohol 101 % of control | dose: 250.0 mg/kg/injection, schedule: Q01DX001 (oral), vehicle: alcohol 104 % of control | dose: 250.0 mg/kg/injection, schedule: Q01DX001 (oral), vehicle: olive oil, sesame oil, peanut oil 113 % of control | dose: 500.0 mg/kg/injection, schedule: Q01DX001 (oral), vehicle: alcohol 113 % of control

COc1ccc(C(=O)c2c[nH]c3c(OC)ccc(O)c23)cc1
inactive: dose: 6.25 mg/kg/injection, schedule: Q04DX002 (ip), vehicle: saline with Tween-80 95 % of control | dose: 12.5 mg/kg/injection, schedule: Q04DX002 (ip), vehicle: saline with Tween-80 95 % of control | dose: 25.0 mg/kg/injection, schedule: Q04DX002 (ip), vehicle: saline with Tween-80 91 % of control

COc1cc(OC)c(NC(=O)NCCCl)cc1Cl
inactive: [1] 104 % of control | [2] 106 % of control | [3] 97 % of control

CCCCCCSCCO
inactive: [4] 94 % of control | [5] 94 % of control | [6] 93 % of control

Nc1ccc2c(c1)C(=O)c1c(C(=O)O)cccc1-2
inactive: dose: 75.0 mg/kg/injection, schedule: Q01DX001 (ip), vehicle: carboxymethylcellulose (CMC) 108 % of control | dose: 150.0 mg/kg/injection, schedule: Q01DX001 (ip), vehicle: carboxymethylcellulose (CMC) 101 % of control

CC1=NCCN=C(C)CC(C)(C)[N-]CC[N-]C(C)(C)C1.[Cl-].[Cl-].[Co+3].[O-][Cl+3]([O-])([O-])O
inactive: dose: 150.0 mg/kg/injection, schedule: Q04DX002 (ip), vehicle: Klucel (hydroxypropylcellulose) (HPC) 97 % of control | dose: 300.0 mg/kg/injection, schedule: Q04DX002 (ip), vehicle: Klucel (hydroxypropylcellulose) (HPC) 94 % of control

CC(C)(NC(=O)OCc1ccccc1)C(=O)O
inactive: [7] 98 % of control | [8] 95 % of control | [9] 101 % of control

CCCCc1csc(=S)[nH]1
inactive: dose: 100.0 mg/kg/injection, schedule: Q01DX001 (sc), vehicle: carboxymethylcellulose (CMC) 100 % of control | dose: 200.0 mg/kg/injection, schedule: Q01DX001 (sc), vehicle: carboxymethylcellulose (CMC) 113 % of control | dose: 400.0 mg/kg/injection, schedule: Q01DX001 (sc), vehicle: carboxymethylcellulose (CMC) 110 % of control

NC(=O)c1c(/N=C/c2ccccc2Cl)sc2c1CCCC2
inactive: [10] 91 % of control | [11] 87 % of control | [12] 91 % of control

Cc1ccc(Cl)cc1NC(=S)Nc1ccccc1
inactive: [13] 100 % of control | [14] 103 % of control | dose: 400.0 mg/kg/injection, schedule: Q04DX002 (ip), vehicle: Klucel (hydroxypropylcellulose) (HPC) 106 % of control

CCCCOP(=O)(OCCCC)OC(C#N)CCC (centres undefined)
inactive: [13] 107 % of control | [14] 98 % of control

CN(C)C(=O)Nc1cccc(OP(=O)(Oc2ccccc2)Oc2ccccc2)c1
inactive: [1] 91 % of control | [2] 94 % of control | [3] 98 % of control

O=[N+]([O-])c1cccc(OCCBr)c1
inactive: [4] 101 % of control | [5] 107 % of control | [6] 103 % of control

CS(=O)(=O)N(CC(=O)O)Cc1cccc(Br)c1
inactive: dose: 50.0 mg/kg/injection, schedule: Q01DX005 (ip), vehicle: other 107 % of control | dose: 100.0 mg/kg/injection, schedule: Q01DX005 (ip), vehicle: other 120 % of control | dose: 200.0 mg/kg/injection, schedule: Q01DX005 (ip), vehicle: other 100 % of control

CC(C)(C)/C(=N\[N+](C)(C)C)c1ccccc1
inactive: dose: 100.0 mg/kg/injection, schedule: Q04DX003 (ip), vehicle: saline 98 % of control

CC(=O)N1CCOC12CCN(Cc1ccccc1)CC2
inactive: dose: 25.0 mg/kg/injection, schedule: Q01DX009 (ip), vehicle: saline with Tween-80 92 % of control | dose: 50.0 mg/kg/injection, schedule: Q01DX009 (ip), vehicle: saline with Tween-80 98 % of control | dose: 100.0 mg/kg/injection, schedule: Q01DX009 (ip), vehicle: saline with Tween-80 88 % of control | [7] 100 % of control

COc1ccc(OC)c(/C=N\NC(=O)c2ccccc2N(C)C)c1
inactive: dose: 100.0 mg/kg/injection, schedule: Q04DX002 (ip), vehicle: gum acacia 100 % of control | dose: 200.0 mg/kg/injection, schedule: Q04DX002 (ip), vehicle: gum acacia 90 % of control | dose: 400.0 mg/kg/injection, schedule: Q04DX002 (ip), vehicle: gum acacia 103 % of control

Cc1nc(N)[nH]c(=O)c1CCCNS(=O)(=O)c1ccc(CNC(=O)CBr)cc1
inactive: dose: 37.5 mg/kg/injection, schedule: Q01DX001 (ip), vehicle: Klucel (hydroxypropylcellulose) (HPC) 107 % of control | dose: 75.0 mg/kg/injection, schedule: Q01DX001 (ip), vehicle: Klucel (hydroxypropylcellulose) (HPC) 94 % of control | dose: 150.0 mg/kg/injection, schedule: Q01DX001 (ip), vehicle: Klucel (hydroxypropylcellulose) (HPC) 96 % of control

Cn1c(=N)ccn(C2OC(CO)C(O)C2O)c1=O (centres undefined) (tested in a mixture with another compound)
inactive: [4] 106 % of control | [5] 106 % of control | [6] 107 % of control

CCN(C(=O)c1ccc2c3c(cccc13)C=C2)c1ccccc1
inactive: [4] 104 % of control | [5] 98 % of control | [6] 98 % of control

CC12CCCCC1CC(=O)CC2 (centres undefined)
inactive: [10] 99 % of control | [11] 86 % of control | [12] 96 % of control

O=CC1CC2CCC1C2 (centres undefined)
inactive: [4] 116 % of control | [5] 91 % of control | [6] 96 % of control

COc1ccc2c(c1)C=Cc1ccc(Cl)cc1N2
inactive: dose: 100.0 mg/kg/injection, schedule: Q01DX009 (ip), vehicle: Klucel (hydroxypropylcellulose) (HPC) 97 % of control | [1] 98 % of control | dose: 200.0 mg/kg/injection, schedule: Q01DX009 (ip), vehicle: Klucel (hydroxypropylcellulose) (HPC) 94 % of control | [2] 101 % of control | dose: 400.0 mg/kg/injection, schedule: Q01DX009 (ip), vehicle: Klucel (hydroxypropylcellulose) (HPC) 94 % of control | [3] 104 % of control

C(=NCCN=Cc1ccccc1)c1ccccc1
inactive: [7] 101 % of control | [8] 95 % of control | [9] 111 % of control

Cc1[nH]c(=O)[nH]c(=O)c1S(=O)(=O)O
inactive: [1] 98 % of control | [2] 93 % of control | [3] 98 % of control
